Assay results: US11857604B2, “Nanovectors and uses” (NH THERAGUIX, priority 2017, dated 2024)

Test: physisorption of active substance on nanoparticles: tangential filtration (3 kDa Vivaspin), subnatant analysed by UV-visible/fluorescence
Assay type: physicochemical
Conditions: for concentration up to which retention of the active substance is observed (minimum) / load content by weight: AGuIX® at 100 mM [Gd3+] = 100 g/l of nanoparticles
Protocol: During the various examples, the maximum drug load content on polysiloxane nanoparticles was determined, when said particles are present at a concentration corresponding to a concentration used during clinical trials for the nanoparticle in question. Increasing concentrations of active substances were thus brought into contact with the nanoparticles. Solutions are purified by tangential filtration. The molecules which have not be able to adsorb to the surface of the nanoparticles pass through the membrane and are found in the subnatant, where they can be detected by spectroscopic techniques such as UV/Visible absorption or else fluorescence spectroscopy (FIG. 2).
This solution is placed in a 3 kDa Vivaspin®, and a tangential filtration cycle is carried out in order to obtain a supernatant of 200 μl. The subnatant is analysed by UV-visible analysis. The supernatant is diluted 50-fold and is analysed by UV-visible analysis.
This solution is placed in a 3 kDa Vivaspin®, and a tangential filtration cycle is carried out so as to obtain a supernatant of 200 μl. The subnatant is analysed by UV-visible analysis and fluorometry after 20-fold dilution.
This solution is placed in a 3 kDa Vivaspin®, and a tangential filtration cycle is carried out so as to obtain a supernatant of 160 μl. The subnatant is analysed by UV-visible analysis. The cisplatin is detectable by UV/VIS absorption at a wavelength of 706 nm after reaction with ODPA. For the reaction with cisplatin, a solution of ODPA at 1.4 mg/ml and a phosphate buffer (pH 6.8) are prepared. The subnatant is diluted 5-fold. 140 μl of this solution are added to 200 μl of buffer and 100 μl of ODPA. The resulting solution is heated at 100° C. for 15 min. Once the reaction is finished and the temperature has returned to ambient temperature, 560 μl of DMF are added. The final solution is filtered and then analysed by UV-visible analysis.

Molecule | limiting concentration up to which cisplatin adsorbs at the surface of the nanoparticles (AGuIX® 100 mM, absorption at 706 nm of ODPA-treated subnatants (FIG. 16)) | concentration up to which retention of the active substance is observed (minimum) [mg/L] | load content by weight | limiting concentration up to which the peptide adsorbs at the surface of the nanoparticles (AGuIX® 100 mM, absorption at 280 nm of subnatants (FIG. 12))
N.N.[Cl][Pt][Cl] [cisplatin] | approximately 240 mg·L^−1 | ≥ 240 | greater than 2.4 mg/g of nanoparticles | –
COc1cccc2c1C(=O)c1c(O)c3c(c(O)c1C2=O)C[C@@](O)(C(=O)CO)C[C@@H]3O[C@H]1C[C@H](N)[C@H](O)[C@H](C)O1 [doxorubicin] | – | ≥ 112 | greater than 1.12 mg/g of nanoparticles | –
tyr3-octreotate [TATE peptide] | – | ≥ 2000 | greater than 20 mg/g of nanoparticles | approximately 2 g·L^1
